Three compounds from ChEMBL document CHEMBL3785084, “Rational modification of the lead molecule: Enhancement in the anticancer and dihydrofolate reductase inhibitory activity” (Bioorg Med Chem Lett, 2016) can be followed below.

Assay type in all cases: functional
A short description of assay [1]: Cytotoxicity against human OVCAR4 cells assessed as cell growth at 10^-5 M after 48 hrs by sulforhodamine B assay. The note with it: OVCAR-4, 48 h, read-out: Activity. In general terms: The SRB assay estimates cell density from bound dye.
Assay [2] can be described thus: Cytotoxicity against human IGROV1 cells assessed as cell growth at 10^-5 M after 48 hrs by sulforhodamine B assay. The following applies: IGROV-1, 48 h, read-out: Activity.
Assay [3] can be described thus: Cytotoxicity against human SNB19 cells assessed as cell growth at 10^-5 M after 48 hrs by sulforhodamine B assay. The note with it: SNB-19, 48 h, read-out: Activity.
Assay [4] can be described thus: Cytotoxicity against human TK10 cells assessed as cell growth at 10^-5 M after 48 hrs by sulforhodamine B assay. The note with it: TK-10, 48 h, read-out: Activity.
Assay [5] in a line: Cytotoxicity against human OVCAR5 cells assessed as cell growth at 10^-5 M after 48 hrs by sulforhodamine B assay. The note with it: OVCAR-5, 48 h, read-out: Activity.
The test system of the next assay is SK-MEL-2. Kind of assay: Cytotoxicity against human SK-MEL-2 cells assessed as cell growth at 10^-5 M after 48 hrs by sulforhodamine B assay. The note with it: SK-MEL-2, 48 h, read-out: Activity.
Assay [6] can be described thus: Cytotoxicity against human UACC257 cells assessed as cell growth at 10^-5 M after 48 hrs by sulforhodamine B assay. The following applies: UACC-257, 48 h, read-out: Activity.
In another assay the test system is MCF7. Kind of assay: Cytotoxicity against human MCF7 cells assessed as cell growth at 10^-5 M after 48 hrs by sulforhodamine B assay. The note with it: MCF7, 48 h, read-out: Activity.
Assay [7] in a line: Cytotoxicity against human DU145 cells assessed as cell growth at 10^-5 M after 48 hrs by sulforhodamine B assay. The following applies: DU-145, 48 h, read-out: Activity.
The nature of assay [8]: Cytotoxicity against human Hs 578T cells assessed as cell growth at 10^-5 M after 48 hrs by sulforhodamine B assay. The following applies: read-out: Activity.
The next assay relates to Malme-3M. The assay is described as follows: Cytotoxicity against human MALME-3M cells assessed as cell growth at 10^-5 M after 48 hrs by sulforhodamine B assay. The note with it: read-out: Activity.
In the next assay the test system is A498. The assay is described as follows: Cytotoxicity against human A498 cells assessed as cell growth at 10^-5 M after 48 hrs by sulforhodamine B assay. The note with it: A498, 48 h, read-out: Activity.
Assay [9] in a line: Cytotoxicity against human HCT116 cells assessed as cell growth at 10^-5 M after 48 hrs by sulforhodamine B assay. The note with it: HCT-116, 48 h, read-out: Activity.
The nature of assay [10]: Cytotoxicity against human OVCAR3 cells assessed as cell growth at 10^-5 M after 48 hrs by sulforhodamine B assay. The following applies: OVCAR-3, 48 h, read-out: Activity.
The next assay has as its system MDA-MB-468. The assay is described as follows: Cytotoxicity against human MDA-MB-468 cells assessed as cell growth at 10^-5 M after 48 hrs by sulforhodamine B assay. The note with it: MDA-MB-468, 48 h, read-out: Activity.
Assay [11] can be described thus: Cytotoxicity against human UACC62 cells assessed as cell growth at 10^-5 M after 48 hrs by sulforhodamine B assay. The following applies: UACC-62, 48 h, read-out: Activity.
Assay [12] is described as follows: Cytotoxicity against human SF268 cells assessed as cell growth at 10^-5 M after 48 hrs by sulforhodamine B assay. The following applies: SF-268, 48 h, read-out: Activity.
Assay [13] in a line: Cytotoxicity against human BT549 cells assessed as cell growth at 10^-5 M after 48 hrs by sulforhodamine B assay. The note with it: BT-549, 48 h, read-out: Activity.
A further assay deals with HT-29. Kind of assay: Cytotoxicity against human HT-29 cells assessed as cell growth at 10^-5 M after 48 hrs by sulforhodamine B assay. The note with it: HT-29, 48 h, read-out: Activity.
The subject of another assay is KM12. Kind of assay: Cytotoxicity against human KM12 cells assessed as cell growth at 10^-5 M after 48 hrs by sulforhodamine B assay. The following applies: KM12, 48 h, read-out: Activity.
A short description of assay [14]: Cytotoxicity against human PC3 cells assessed as cell growth at 10^-5 M after 48 hrs by sulforhodamine B assay. The note with it: PC-3, 48 h, read-out: Activity.

In the case of `O=C1NC(=O)C(=Cc2cn(CC(O)Cn3cc(C=C4C(=O)NC(=O)NC4=O)c4ccccc43)c3ccccc23)C(=O)N1`, the growth at 10 µM in assay [1] is 100%; in assay [2] it was 97.3%; in [3], 103%; in assay [4], 105%; in assay [5], 109%; with SK-MEL-2, 113%. In addition, the growth at 10 µM in assay [6] is 110%; with MCF7 it was 91.1%; in assay [7], 104%; in assay [8] it was 108%; with Malme-3M, 97.7%; in the assay with A498 it was 106%. For the same compound, the growth at 10 µM in assay [9] was 79.2%; in [10], 109%; in the assay on MDA-MB-468, 96.7%; in assay [11], 106%; in assay [12] it was 93.4%; in assay [13], 82.6%. In addition, the growth at 10 µM with HT-29 is 88.3%; in the assay with KM12, 94%; in [14], 93.7%.
Consider `CC1=NN(c2cccc(Cl)c2)C(=O)/C1=C\c1cn(CC(O)Cn2cc(/C=C3\C(=O)N(c4cccc(Cl)c4)N=C3C)c3ccccc32)c2ccccc12`, for which the growth at 10 µM in assay [1] was found to be 103%; in assay [2], 104%; in assay [3] it was 107%; in assay [4], 118%; in assay [5], 102%; with SK-MEL-2, 115%. Also, the growth at 10 µM stood at 116% in [6]; 97.9% in the assay on MCF7; 111% in [7]; 102% in assay [8]; 89.6% in the assay with Malme-3M; 119% in the assay on A498. The growth at 10 µM in [9] worked out at 99.3%; in [10] it was 102%; in the assay with MDA-MB-468, 123%; in assay [11] it was 112%; in assay [12] it was 104%; in [13], 109%. In addition, the growth at 10 µM in the assay on HT-29 worked out at 112%; in the assay on KM12, 100%; in assay [14] it was 104%.
On to `CN1C(=O)C(=Cc2cn(CC(O)Cn3cc(C=C4C(=O)N(C)C(=O)N(C)C4=O)c4ccccc43)c3ccccc23)C(=O)N(C)C1=O`, for which the growth at 10 µM in [1] was 97.2%; in assay [2], 78.8%; in assay [3], 102%; in assay [4] it was 117%; in assay [5], 90.5%; in the assay on SK-MEL-2, 118%. For the same compound, the growth at 10 µM stood at 127% in assay [6]; 91.8% in the assay with MCF7; 106% in assay [7]; 97.3% in assay [8]; 87.7% in the assay on Malme-3M; 98.4% in the assay on A498. The growth at 10 µM is 80.3% in assay [9]; 95.2% in [10]; 19.4% with MDA-MB-468; 88.3% in assay [11]; 92% in [12]; 92.3% in assay [13]. Moreover, the growth at 10 µM in the assay on HT-29 is 112%; with KM12 it was 94.3%; in assay [14], 79.6%.
